From patent US20240269298A1, “PHOSPHONYL DERIVATIVE, AND COMPOSITION AND PHARMACEUTICAL APPLICATION THEREOF” (XIZANG HAISCO PHARMACEUTICAL CO., LTD., priority 2021, published 2024)
Read-outs that look alike come from different tables or passages of the source.

Columns and labels:
[1] = Pharmacokinetic test in mice; format: in vivo; conditions: male, ICR, mouse, po, administration i.g. (10 mg/kg), plasma
Method: Test objective: In this experiment, a single dose of test compounds was administered to ICR mice intravenously and intragastrically, the concentrations of the test compounds in plasma of mice were measured, and the pharmacokinetic characteristics and bioavailability of the test compounds in mice were evaluated.
Experimental animals: male ICR mice, 20-25 g, purchased from BEIJING HFK BIOSCIENCE CO., LTD. with the laboratory animal production license number of SCXK (JING) 2019-0008; or purchased from CHENGDU DDOSSY EXPERIMENTAL ANIMALS CO., LTD. (SCXK (CHUAN) 2020-030); or purchased from HUNAN SJA LABORATORY ANIMAL CO., LTD. (SCXK (XIANG) 2019-0004).
Experimental method: on the day of the experiment, ICR mice were randomly grouped according to their body weights. The mice were fasted with water available for 12 to 14 hours one day before the administration, and were fed 4 hours after the administration.
Sampling: before and after the administration, blood was taken from the orbits of the mice under isoflurane anesthesia, and placed in an EDTAK2 centrifuge tube. Centrifugation was carried out at 5000 rpm at 4° C. for 10 min, and the plasma was collected.
Time points for plasma collection in G1&G2 groups: 0, 5 min, 15 min, 30 min, 1h, 2h, 4h, 6h, 8h, and 24 h; • time points for plasma collection in G3 group: 0, 5 min, 15 min, 30 min, 1 h, 2 h, 4 h, 6h, 8h, and 24 h; • before analysis and detection, all samples were stored at −80° C. The samples were analyzed quantitatively by LC-MS/MS.

[2] = tested on: NCI-H1975 (EGFR-L858R-T790M) cells; test: Inhibitory activity on proliferation of NCI-H1975 (EGFR-L858R-T790M) cells (CTG, 72 h); format: cell-based; conditions: Homo sapiens
How it was run: (§1)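 Cells plated at 1000/well (NCI-H1975, RPMI1640+10% FBS) or 3000/well (A431, DMEM+10% FBS), dosed next day with compounds (0.1% DMSO final) for 72 h at 37 °C, 5% CO2. Viability by CTG luminescence, normalised to vehicle control; IC50 from nonlinear-regression dose-survival curves.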

[3] = tested on: A431 (EGFR-WT) cells; test: Inhibitory activity on proliferation of A431 (EGFR-WT) cells (CTG, 72 h); format: cell-based; conditions: Homo sapiens, A-431
How it was run: as §1

[4] = read-out: IC50 (value in brackets)

| Compound | AUC(0-t) [1] [µg·h/mL] | IC50 ([2]; read-out: IC50 (class symbol)) [µM] | IC50 [2, 4] [µM] | IC50 [3] [µM] | AUC [1] [µg·h/mL] | half-life [1] [h] |
| --- | --- | --- | --- | --- | --- | --- |
| COc1cc(N2CCC(N3CCN(CC4CCN(c5ccc6c(c5)C(=O)N(C5CCC(=O)NC5=O)C6=O)CC4)CC3)CC2)c(-c2cnn(C)c2)cc1Nc1ncc(Br)c(Nc2ccc3ccccc3c2P(C)(C)=O)n1 (stereo not drawn) [Compound 71, 5-(4-((4-(1-(4-((5-bromo-4-((1-(dimethylphosphoryl)naphthalen-2-yl)amino)pyrimidin-2-yl)amino)-5-methoxy-2-(1-methyl-1H-pyrazol-4-yl)phenyl)piperidin-4-yl)piperazin-1-yl)methyl)piperidin-1-yl)-2-(2,6-dioxopiperidin-3-yl)isoindoline-1,3-dione] | 24.7 | < 0.1 | 0.029 | ≥ 10 |  |  |
| COc1cc(N2CCC(CN3CCC4(CCCN(c5ccc6c(c5)C(=O)N(C5CCC(=O)NC5=O)C6=O)C4)CC3)CC2)c(-c2cnn(C)c2)cc1Nc1ncc(Cl)c(Nc2ccc(-c3ccccc3)cc2P(C)(C)=O)n1 (stereo not drawn) [Compound 89, 5-(9-((1-(4-((5-chloro-4-((3-(dimethylphosphoryl)-[1,1′-biphenyl]-4-yl)amino)pyrimidin-2-yl)amino)-5-methoxy-2-(1-methyl-1H-pyrazol-4-yl)phenyl)piperidin-4-yl)methyl)-2,9-diazaspiro[5.5]undecan-2-yl)-2-(2,6-dioxopiperidin-3-yl)isoindoline-1,3-dione] | 8.43 | < 0.1 | 0.084 | ≥ 10 |  |  |
| COc1cc(N2CCC(CN3CCN(c4ccc5c(c4)C(=O)N(C4CCC(=O)NC4=O)C5=O)CC3)CC2)c(-c2cnn(C)c2)cc1Nc1ncc(Br)c(Nc2ccc(F)cc2P(C)(C)=O)n1 (stereo not drawn) [Compound 141, 5-(4-((1-(4-((5-bromo-4-((2-(dimethylphosphoryl)-4-fluorophenyl)amino)pyrimidin-2-yl)amino)-5-methoxy-2-(1-methyl-1H-pyrazol-4-yl)phenyl)piperidin-4-yl)methyl)piperazin-1-yl)-2-(2,6-dioxopiperidin-3-yl)isoindoline-1,3-dione] |  | < 0.1 | 0.027 |  | 86.6 | 5.91 |
| COc1cc(N2CCC(N3CCC4(CCCN(c5cc6c(cc5F)C(=O)N(C5CCC(=O)NC5=O)C6=O)C4)CC3)CC2)c(-c2cnn(C)c2)cc1Nc1ncc(Br)c(Nc2ccc(-c3ccccc3)cc2P(C)(C)=O)n1 (stereo not drawn) [Compound 88, 5-(9-(1-(4-((5-bromo-4-((3-(dimethylphosphoryl)-[1,1′-biphenyl]-4-yl)amino)pyrimidin-2-yl)amino)-5-methoxy-2-(1-methyl-1H-pyrazol-4-yl)phenyl)piperidin-4-yl)-2,9-diazaspiro[5.5]undecan-2-yl)-2-(2,6-dioxopiperidin-3-yl)-6-fluoroisoindoline-1,3-dione] | 5.12 | < 0.1 | 0.067 | ≥ 10 |  |  |
| COc1cc(N2CCC(CN3CCN(c4ccc5c(c4)C(=O)N(C4CCC(=O)NC4=O)C5=O)CC3)CC2)c(-c2cnn(C)c2)cc1Nc1ncc(Cl)c(Nc2ccc(F)cc2P(C)(C)=O)n1 (stereo not drawn) [Compound 142, 5-(4-((1-(4-((5-chloro-4-((2-(dimethylphosphoryl)-4-fluorophenyl)amino)pyrimidin-2-yl)amino)-5-methoxy-2-(1-methyl-1H-pyrazol-4-yl)phenyl)piperidin-4-yl)methyl)piperazin-1-yl)-2-(2,6-dioxopiperidin-3-yl)isoindoline-1,3-dione] |  | < 0.1 | 0.033 |  | 104 | 5.12 |
| COc1cc(N2CCC(CN3CCC4(CC3)CCN(c3ccc5c(c3)C(=O)N(C3CCC(=O)NC3=O)C5=O)CC4)CC2)c(-c2cnn(C)c2)cc1Nc1ncc(Br)c(Nc2ccc(-c3ccccc3F)cc2P(C)(C)=O)n1 (stereo not drawn) [Compound 95, 5-(9-((1-(4-((5-bromo-4-((3-(dimethylphosphoryl)-2′-fluoro-[1,1′-biphenyl]-4-yl)amino)pyrimidin-2-yl)amino)-5-methoxy-2-(1-methyl-1H-pyrazol-4-yl)phenyl)piperidin-4-yl)methyl)-3,9-diazaspiro[5.5]undecan-3-yl)-2-(2,6-dioxopiperidin-3-yl)isoindoline-1,3-dione] | 20.8 | < 0.1 | 0.049 | ≥ 10 |  |  |
| COc1cc(N2CCC(N3CCN(CC4CCN(c5ccc6c(c5)C(=O)N(C5CCC(=O)NC5=O)C6=O)CC4)CC3)CC2)c(-c2cnn(C)c2)cc1Nc1ncc(Cl)c(Nc2ccc(-c3ccccc3)cc2P(C)(C)=O)n1 (stereo not drawn) [Compound 58, 5-(4-((4-(1-(4-((5-chloro-4-((3-(dimethylphosphoryl)-[1,1′-biphenyl]-4-yl)amino)pyrimidin-2-yl)amino)-5-methoxy-2-(1-methyl-1H-pyrazol-4-yl)phenyl)piperidin-4-yl)piperazin-1-yl)methyl)piperidin-1-yl)-2-(2,6-dioxopiperidin-3-yl)isoindoline-1,3-dione] | 16.3 | < 0.1 | 0.072 | ≥ 10 |  |  |
| COc1cc(N2CCC(N3CCN(C4CC5(CCN(c6ccc7c(c6)C(=O)N(C6CCC(=O)NC6=O)C7=O)CC5)C4)CC3)CC2)c(-c2cnn(C)c2)cc1Nc1ncc(Cl)c(Nc2ccc(-c3ccccc3)cc2P(C)(C)=O)n1 (stereo not drawn) [Compound 91] | 7.58 | < 0.1 | 0.078 | ≥ 10 |  |  |
| COc1cc(N2CCC(N3CCN(CC4CCN(c5cc6c(cc5F)C(=O)N(C5CCC(=O)NC5=O)C6=O)CC4)CC3)CC2)c(-c2cnn(C)c2)cc1Nc1ncc(Cl)c(Nc2ccc(-c3ccccc3)cc2P(C)(C)=O)n1 (stereo not drawn) [Compound 93, 5-(4-((4-(1-(4-((5-chloro-4-((3-(dimethylphosphoryl)-[1,1′-biphenyl]-4-yl)amino)pyrimidin-2-yl)amino)-5-methoxy-2-(1-methyl-1H-pyrazol-4-yl)phenyl)piperidin-4-yl)piperazin-1-yl)methyl)piperidin-1-yl)-2-(2,6-dioxopiperidin-3-yl)-6-fluoroisoindoline-1,3-dione] | 4.62 | < 0.1 | 0.049 | ≥ 10 |  |  |
| COc1cc(N2CCC(N3CCN(CC4CCN(c5ccc(C(=O)NC6CCC(=O)NC6=O)nc5)CC4)CC3)CC2)c(-c2cnn(C)c2)cc1Nc1ncc(Br)c(Nc2ccc(-c3ccccc3)cc2P(C)(C)=O)n1 (stereo not drawn) [Compound 56, 5-(4-((4-(1-(4-((5-bromo-4-((3-(dimethylphosphoryl)-[1,1′-biphenyl]-4-yl)amino)pyrimidin-2-yl)amino)-5-methoxy-2-(1-methyl-1H-pyrazol-4-yl)phenyl)piperidin-4-yl)piperazin-1-yl)methyl)piperidin-1-yl)-N-(2,6-dioxopiperidin-3-yl)picolinamide] | 28.6 | < 0.1 | 0.061 |  |  |  |
| COc1cc(N2CCC3(CCN(CC4CCN(c5cc6c(cc5F)C(=O)N(C5CCC(=O)NC5=O)C6=O)CC4)CC3)CC2)c(-c2cnn(C)c2)cc1Nc1ncc(Br)c(Nc2ccc(-c3ccccc3)cc2P(C)(C)=O)n1 (stereo not drawn) [Compound 39, 5-(4-((9-(4-((5-bromo-4-((3-(dimethylphosphoryl)-[1,1′-biphenyl]-4-yl)amino)pyrimidin-2-yl)amino)-5-methoxy-2-(1-methyl-1H-pyrazol-4-yl)phenyl)-3,9-diazaspiro[5.5]undecan-3-yl)methyl)piperidin-1-yl)-2-(2,6-dioxopiperidin-3-yl)-6-fluoroisoindoline-1,3-dione] | 6 | < 0.1 | 0.051 |  |  |  |
